Drawing on ChEMBL document CHEMBL3600331, “Small molecule inhibits activity of scavenger receptor A: Lead identification and preliminary studies” (Bioorg Med Chem Lett, 2015), this text covers inhibition for two molecules.

The source made the active and inactive calls. The rule behind the calls is not given here.

In test [1] the target is T1, Macrophage scavenger receptor types I and II (Mus musculus) (UniProt P30204).
T1 sequence (whole entry): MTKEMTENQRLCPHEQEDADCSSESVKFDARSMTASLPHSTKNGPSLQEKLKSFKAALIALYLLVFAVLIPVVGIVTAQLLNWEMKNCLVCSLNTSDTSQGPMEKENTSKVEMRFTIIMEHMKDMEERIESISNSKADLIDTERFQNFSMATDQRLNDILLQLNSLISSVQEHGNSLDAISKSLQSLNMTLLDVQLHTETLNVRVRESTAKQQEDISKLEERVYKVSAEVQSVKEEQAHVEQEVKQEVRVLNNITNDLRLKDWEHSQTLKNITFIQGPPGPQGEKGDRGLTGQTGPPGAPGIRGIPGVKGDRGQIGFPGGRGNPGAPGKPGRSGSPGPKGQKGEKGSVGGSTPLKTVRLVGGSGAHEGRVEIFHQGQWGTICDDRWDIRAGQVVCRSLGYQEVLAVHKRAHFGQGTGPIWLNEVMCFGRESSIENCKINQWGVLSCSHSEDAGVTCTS
Description: Inhibition of scavenger receptor A in wild type C57BL/6 mouse BMDC assessed as gp100 (25 to 33) peptide-induced T cell activation by measuring IL2 production at 20 uM after 56 hrs by ELISA.

Another test relates to B3Z. Description: Inhibition of scavenger receptor A (unknown origin) in mouse B3Z cells assessed as anti-CD3/CD28 antibody-induced T cell activation by measuring transcription of il2 gene after 5 hrs by beta-galactosidase assay. The test is classed as cell-based.
Another test relates to T-cell. Description: Inhibition of OVA257-264 peptide-induced T cell activation in SRA-deficient C57BL/6 mouse BMDC assessed as IL2 production at 10 to 30 uM after 56 hrs by ELISA. The test is classed as functional, cell-based. In general terms: An ELISA detects its analyte on a solid surface through an enzyme-linked reagent.
The target of test [2] is T1, Macrophage scavenger receptor types I and II (Mus musculus). As to the kind of experiment: Inhibition of scavenger receptor A in mouse DC1.2 cells assessed as decrease in poly(I:C)-induced activation of STAT1 pretreated for 2 hrs before poly(I:C) stimulation measured after 3 hrs by immunoblotting. The class given is cell-based.
Test [3] shares this target. Description: Inhibition of scavenger receptor A in mouse DC1.2 cells assessed as decrease in poly(I:C)-induced activation of IRF3 pretreated for 2 hrs before poly(I:C) stimulation measured after 3 hrs by immunoblotting. The class given is cell-based. For orientation: A western blot detects proteins with antibodies after separation by electrophoresis.
The target is the same in test [4]. As to the kind of experiment: Inhibition of scavenger receptor A in wild type C57BL/6 mouse BMDC assessed as OVA257-264 peptide-induced T cell activation by measuring IL2 production at 10 uM after 56 hrs by ELISA.
Test [5] has the same target. As to the kind of experiment: Inhibition of scavenger receptor A in wild type C57BL/6 mouse BMDC assessed as OVA257-264 peptide-induced T cell activation by measuring IL2 production at 30 uM after 56 hrs by ELISA.

`O=C(O)c1cc(O)c2c(c1)C(=O)c1cccc(O)c1C2=O`: the inhibition entry in test [1], in test [4] and in test [5] was “Active” each time. The inhibition result (with B3Z; in test [2]; in test [3]) was “Dose-dependent effect” each time. Besides, the inhibition result with T-cell was “inactive”.
Take `O=C(O)c1cc(O)c2c(c1)[C@@H]([C@H]1c3cc(C(=O)O)cc(O)c3C(=O)c3c(O[C@@H]4O[C@H](CO)[C@@H](O)[C@H](O)[C@H]4O)cccc31)c1cccc(O[C@@H]3O[C@H](CO)[C@@H](O)[C@H](O)[C@H]3O)c1C2=O`: the inhibition entry in test [1] is “Active”.
